One test concerns the target E. coli PBP3 (Escherichia coli (strain K12), UniProt P0AD68). Description: E. coli PBP3 Bocillin-FL fluorescence polarization competition binding assay. The procedure, abridged:
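Competition against 0.1 μM Bocillin-FL for binding to 1.5 μM purified protein, read by fluorescence polarization for 60 min. Compounds tested from 0 to 1000 μM; EC50 taken as the concentration reducing probe binding.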
For orientation: In fluorescence polarisation assays a small probe gives low polarisation when free and higher when bound to something large.

Test [1] relates to engineered strain of Escherichia coli harboring CTX-M15. Description: microbe, parasite or virus in culture. The following applies: for MIC: Escherichia coli, read-out: Microbiological Activity (MIC in mg/L), E. coli DH5α/pLBII-CTX-M15, engineered strain producing CTX-M15. The class given is cell-based. How it is done: Briefly, cryo-preserved bacterial cultures of challenge strains are streaked for isolation on appropriate agar medium, in this case Mueller Hinton II agar. Following incubation to allow growth of the colonies, plates are sealed with parafilm and stored refrigerated for up to two weeks. For preparation of assay inoculum and to ensure low variability, at least 5 colonies are picked from the agar plates with an inoculating loop and aseptically transferred to a culture tube containing 3 mL of Mueller-Hinton Broth (supplemented with divalent cations to required levels based on Manufacturers' certification). The broth culture is grown for 3-5 hours at 37° C. with shaking at 200 rpm. Meanwhile, 2-fold serial dilutions of test compounds are conducted in a 96 well plate with a final volume of 75 μL per well at 2-fold the final desired concentration. After the dilution plates are set up the growing cultures are then diluted in a cuvette containing MH II broth and the optical density is measured at 600 nm. The Inoculum is diluted such that 75 μL of this culture in Mueller-Hinton Broth results in a starting bacterial concentration of 5×10^5 CFU/mL when added to the dilution plates. The plates are incubated for 16-20 hours at 37° C. The MIC values are read visually as the lowest concentration well with no bacterial growth.
To determine if test compounds were affected by CTX-M15, the most abundant extended spectrum […] in clinical settings worldwide, the inhibition of the growth of an engineered strain of Escherichia coli harboring CTX-M15 was tested. This strain was constructed by cloning the gene encoding CTX-M15 into the NdeI and BamHI restriction endonuclease sites of plasmid pLBII, placing the gene(s) under the control of the Lac promoter. The constructed expression plasmid for CTX-M15 was used to transform competent E. coli DH5α cells to make the engineered strain, including an empty pLBII vector control strain. The classic cell based broth microdilution MIC assay was employed as described above with the addition of control antibiotics, known to be degraded by β-lactamases (Ceftazidime, piperacillin and piperacillin+tazobactam).

[2] abbreviates: fluorescence polarization competition binding with Bocillin-FL, read-out: E. coli K12 PBP3 Potency.

The structures appear in SMILES notation. Values after ≈ are worked out from the molar mass of the structure shown. Counter-ions that a name gives are not always drawn. Like-named read-outs stand apart in the source and are kept apart here.

Chain of E. coli PBP3 (P0AD68 whole entry): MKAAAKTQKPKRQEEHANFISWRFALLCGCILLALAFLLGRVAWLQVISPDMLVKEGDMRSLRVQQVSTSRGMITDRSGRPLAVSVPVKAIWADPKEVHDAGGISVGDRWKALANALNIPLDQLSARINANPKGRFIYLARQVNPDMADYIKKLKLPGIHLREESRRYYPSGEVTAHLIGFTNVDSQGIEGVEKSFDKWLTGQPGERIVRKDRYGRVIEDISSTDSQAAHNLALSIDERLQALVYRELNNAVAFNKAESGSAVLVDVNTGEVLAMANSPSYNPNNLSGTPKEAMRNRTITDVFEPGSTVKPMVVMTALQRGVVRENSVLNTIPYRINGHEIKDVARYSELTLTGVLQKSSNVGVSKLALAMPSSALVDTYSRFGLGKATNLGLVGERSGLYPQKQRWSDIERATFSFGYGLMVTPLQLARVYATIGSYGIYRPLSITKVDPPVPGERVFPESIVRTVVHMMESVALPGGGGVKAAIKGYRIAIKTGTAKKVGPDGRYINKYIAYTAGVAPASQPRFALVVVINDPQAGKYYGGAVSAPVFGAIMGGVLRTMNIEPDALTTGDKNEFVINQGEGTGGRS

Regarding `CCN1CCN(C(=O)NC(C(=O)N[C@H]2Cc3cccc(C(=O)O)c3OB2O)c2c(C)n[nH]c2C)C(=O)C1=O` (stereo partly drawn) [Example 54, (3R)-3-(2-(3,5-dimethyl-1H-pyrazol-4-yl)-2-(4-ethyl-2,3-dioxopiperazine-1-carboxamido)acetamido)-2-hydroxy-3,4-dihydro-2H-benzo[e][1,2]oxaborinine-8-carboxylic acid, trifluoroacetic acid salt], the EC50 on E. coli PBP3 lay in the range of 30 to 500 µM. Moreover, in test [1], the MIC fell in the range of 128 to 256 mg/L.

As for `CCN1CCN(C(=O)NC(C(=O)N[C@H]2Cc3cccc(C(=O)O)c3OB2O)C2CCNC2)C(=O)C1=O` (stereo partly drawn) [Example 55, (3R)-3-(2-(4-ethyl-2,3-dioxopiperazine-1-carboxamido)-2-(pyrrolidin-3-yl)acetamido)-2-hydroxy-3,4-dihydro-2H-benzo[e][1,2]oxaborinine-8-carboxylic acid, trifluoroacetic acid salt], the EC50 on E. coli PBP3 (setting [2]) was greater than 500 µM. In addition, the MIC in test [1] lay in the range of 128 to 256 mg/L.

Regarding `CCN1CCN(C(=O)NC(C(=O)N[C@H]2Cc3cccc(C(=O)O)c3OB2O)C2CCN(CC(N)=O)C2)C(=O)C1=O` (stereo partly drawn) [Example 57, (3R)-3-(2-(1-(2-amino-2-oxoethyl)pyrrolidin-3-yl)-2-(4-ethyl-2,3-dioxopiperazine-1-carboxamido)acetamido)-2-hydroxy-3,4-dihydro-2H-benzo[e][1,2]oxaborinine-8-carboxylic acid, trifluoroacetic acid salt], the EC50 on E. coli PBP3 (setting [2]) is greater than 500 µM. For the same compound, in test [1], the MIC was in the range of 128 to 256 mg/L.

On to `CCN1CCN(C(=O)N[C@@H](C(=O)N[C@H]2Cc3cccc(C(=O)O)c3OB2O)[C@@H](C)OCC(N)=O)C(=O)C1=O` [Example 66, (R)-3-((2R,3R)-3-(2-amino-2-oxoethoxy)-2-(4-ethyl-2,3-dioxopiperazine-1-carboxamido)butanamido)-2-hydroxy-3,4-dihydro-2H-benzo[e][1,2]oxaborinine-8-carboxylic acid], for which the EC50 on E. coli PBP3 was 30 to 500 µM. Further, the MIC in test [1] lay in the range of 32 to 64 mg/L (≈ 60 to 120 µM).

Regarding `CCN1CCN(C(=O)N[C@H](CNS(=O)(=O)C(F)(F)F)C(=O)N[C@H]2Cc3cccc(C(=O)O)c3OB2O)C(=O)C1=O` [Example 75, (R)-3-((R)-2-(4-ethyl-2,3-dioxopiperazine-1-carboxamido)-3-((trifluoromethyl)sulfonamido)propanamido)-2-hydroxy-3,4-dihydro-2H-benzo[e][1,2]oxaborinine-8-carboxylic acid], the EC50 at E. coli PBP3 (setting [2]) is greater than 500 µM. In addition, the MIC in test [1] lay within 128 to 256 mg/L (≈ 216 to 431 µM).

For the compound `CCN1CCN(C(=O)N[C@H](CNS(C)(=O)=O)C(=O)N[C@H]2Cc3cccc(C(=O)O)c3OB2O)C(=O)C1=O` [Example 83, (R)-3-((R)-2-(4-ethyl-2,3-dioxopiperazine-1-carboxamido)-3-(methylsulfonamido)propanamido)-2-hydroxy-3,4-dihydro-2H-benzo[e][1,2]oxaborinine-8-carboxylic acid], the EC50 on E. coli PBP3 (setting [2]) was greater than 500 µM. Further, the MIC in test [1] lay in the range of 32 to 64 mg/L (≈ 59.3 to 119 µM).

On to `C[C@@H](O)[C@@H](NC(=O)N1CCN(CCF)C(=O)C1=O)C(=O)N[C@H]1Cc2cc(O)c(O)c(C(=O)O)c2OB1O` [Example 94, (R)-3-((2R,3R)-2-(4-(2-fluoroethyl)-2,3-dioxopiperazine-1-carboxamido)-3-hydroxybutanamido)-2,6,7-trihydroxy-3,4-dihydro-2H-benzo[e][1,2]oxaborinine-8-carboxylic acid], for which the EC50 at E. coli PBP3 (setting [2]) was greater than 500 µM. The MIC in test [1] lay in the range of 128 to 256 mg/L (≈ 243 to 486 µM).

With `CCN1CCN(C(=O)N[C@@H](C(=O)N[C@H]2Cc3cc(O)c(O)c(C(=O)O)c3OB2O)[C@@H](C)O)C(=O)C1=O` [Example 95, (R)-3-((2R,3R)-2-(4-ethyl-2,3-dioxopiperazine-1-carboxamido)-3-hydroxybutanamido)-2,6,7-trihydroxy-3,4-dihydro-2H-benzo[e][1,2]oxaborinine-8-carboxylic acid], the EC50 on E. coli PBP3 (setting [2]) is greater than 500 µM. In addition, the MIC in test [1] was 128 to 256 mg/L (≈ 252 to 504 µM).

Regarding `CCN1CCN(C(=O)N[C@@H](C(=O)N[C@H]2Cc3cc(O)c(O)c(C(=O)O)c3OB2O)[C@H](C)O)C(=O)C1=O` [Example 96, (R)-3-((2R,3S)-2-(4-ethyl-2,3-dioxopiperazine-1-carboxamido)-3-hydroxybutanamido)-2,6,7-trihydroxy-3,4-dihydro-2H-benzo[e][1,2]oxaborinine-8-carboxylic acid], the EC50 on E. coli PBP3 (setting [2]) was greater than 500 µM. For the same compound, the MIC in test [1] was 128 to 256 mg/L (≈ 252 to 504 µM).

In the case of `CCN1CCN(C(=O)N[C@@](C)(C(=O)N[C@H]2Cc3cccc(C(=O)O)c3OB2O)c2csc(N)n2)C(=O)C1=O` [Example 97, (R)-3-((R)-2-(2-aminothiazol-4-yl)-2-(4-ethyl-2,3-dioxopiperazine-1-carboxamido)propanamido)-2-hydroxy-3,4-dihydro-2H-benzo[e][1,2]oxaborinine-8-carboxylic acid], at E. coli PBP3 (setting [2]), the EC50 was greater than 500 µM. For the same compound, the MIC in test [1] is 128 to 256 mg/L (≈ 235 to 470 µM).

With `CC(C)(O/N=C(\C(=O)N[C@@H]1C(=O)N2C(C(=O)[O-])=C(C[n+]3ccccc3)CS[C@H]12)c1csc(N)n1)C(=O)O` [ceftazidime, reference compound], in test [1] (engineered E. coli DH5α with CTX-M15 vs empty vector control), the “MIC in CTX-M15 producer compared with parent strain with empty pLBII plasmid” value is listed as “weaker MICs in the CTX-M15 producer”. The “Microbiological Activity (MIC in mg/L), E. coli DH5α/pLBII-CTX-M15” value in test [1] (engineered strain producing CTX-M15) is reported as “D (D represents an MIC from 8 to 16 μg/mL)”.

The values above are taken from US12173018B2, “Penicillin-binding protein inhibitors” (priority 2018, dated 2024).
